Earlier results on one molecule are cited in patent US20050113433A1, “Compositions of a phenyl acetic acid cyclooxygenase-2 selective inhibitor and a cholinergic agent for the treatment of reduced blood flow or trauma to the central nervous system” (Pharmacia Corporation, priority 2003, published 2005).

For this data set the following is noted: administered to subjects following stroke.

For the molecule `C[N+](C)(C)CCOP(=O)(O)OP(=O)(O)OC[C@H]1O[C@@H](n2ccc(N)nc2=O)[C@H](O)[C@@H]1O` [citicoline], the behavioral parameters entry is on record as “improvement in behavioral parameters” and the infarction volume result was “decrease in infarction volume”.
